In patent US5858684A, “Method of screening calcium receptor-active molecules” (priority 1995, dated 1999):
Entries after “also recorded” stand apart in the source; their conditions may differ. Where two headings read alike, the source gives them in different places.

Experiments:
[1] = test system: parathyroid cell calcium receptor; format: cell-based; settings: for response of bovine parathyroid cells or Xenopus oocytes expressing calcium receptors to mGluR agonists: bovine parathyroid cells or calcium receptor-expressing Xenopus oocytes; for mobilization of intracellular Ca2+: 500 μM
Method: For example, bovine parathyroid cells loaded with fura-2 are initially suspended in buffer containing 0.5 mM CaCl2. A test substance is added to the cuvette in a small volume (5-15 μl) and changes in the fluorescence signal are measured. Cumulative increases in the concentration of the test substance are made in the cuvette until some predetermined concentration is achieved or no further changes in fluorescence are noted.
This section describes procedures used to obtain and treat parathyroid cells from calves and humans. […] Human parathyroid glands, were obtained from patients undergoing surgical removal of parathyroid tissue for primary or uremic hyperparathyroidism (uremic HPT), and were treated similarly to bovine tissue.
Glands were trimmed of excess fat and connective tissue and then minced with fine scissors into cubes approximately 2-3 mm on a side. Dissociated parathyroid cells were prepared by collagenase digestion and then purified by centrifugation in Percoll buffer. The resultant parathyroid cell preparation was essentially devoid of red blood cells, adipocytes, and capillary tissue as assessed by phase contrast microscopy and Sudan black B staining. Dissociated and purified parathyroid cells were present as small clusters containing 5 to 20 cells.
(§1) The cells were then pelleted, resuspended in the same buffer, but lacking the ester, and incubated a further 15 minutes at 37° C. The cells were subsequently washed twice with PCB containing 0.5 mM CaCl2 and 0.5% BSA and maintained at room temperature (about 20° C.). Immediately before use, the cells were diluted five-fold with prewarmed 0.5 mM CaCl2 -PCB to obtain a final BSA concentration of 0.1%. The concentration of cells in the cuvette used for fluorescence recording was 1-2×10^6 /ml.
(§2) The fluorescence of indicator-loaded cells was measured at 37° C. in a spectrofluorimeter (Biomedical Instrumentation Group, University of Pennsylvania, Philadelphia, Pa.) equipped with a thermostated cuvette holder and magnetic stirrer using excitation and emission wavelengths of 340 and 510 nm, respectively. […] Leakage of dye is dependent on temperature and most occurs within the first 2 minutes after warming the cells in the cuvette. Dye leakage increases only very slowly thereafter. To correct the calibration for dye leakage, cells were placed in the cuvette and stirred at 37° C. for 2-3 minutes. The cell suspension was then removed, the cells pelleted, and the supernatant returned to a clean cuvette. […] This estimate was subtracted from the apparent Fmin.
Dissociated bovine parathyroid cells were purified on gradients of Percoll and cultured overnight in serum-free medium.

[2] = target: T1, bovine parathyroid cell calcium receptor (BoPCaR 1) (Bos taurus, UniProt P35384); assay: Cl- current in Xenopus oocytes expressing BoPCaR 1; format: cell-based
T1 construct: Xenopus oocytes were injected with BoPCaR 1, the 5.3 Kb cDNA encoding a bovine parathyroid cell calcium receptor; expressed in transfected cells; host or cells: Xenopus laevis oocytes injected with cRNA/cDNA of BoPCaR 1
T1 sequence (P35384 20-1085): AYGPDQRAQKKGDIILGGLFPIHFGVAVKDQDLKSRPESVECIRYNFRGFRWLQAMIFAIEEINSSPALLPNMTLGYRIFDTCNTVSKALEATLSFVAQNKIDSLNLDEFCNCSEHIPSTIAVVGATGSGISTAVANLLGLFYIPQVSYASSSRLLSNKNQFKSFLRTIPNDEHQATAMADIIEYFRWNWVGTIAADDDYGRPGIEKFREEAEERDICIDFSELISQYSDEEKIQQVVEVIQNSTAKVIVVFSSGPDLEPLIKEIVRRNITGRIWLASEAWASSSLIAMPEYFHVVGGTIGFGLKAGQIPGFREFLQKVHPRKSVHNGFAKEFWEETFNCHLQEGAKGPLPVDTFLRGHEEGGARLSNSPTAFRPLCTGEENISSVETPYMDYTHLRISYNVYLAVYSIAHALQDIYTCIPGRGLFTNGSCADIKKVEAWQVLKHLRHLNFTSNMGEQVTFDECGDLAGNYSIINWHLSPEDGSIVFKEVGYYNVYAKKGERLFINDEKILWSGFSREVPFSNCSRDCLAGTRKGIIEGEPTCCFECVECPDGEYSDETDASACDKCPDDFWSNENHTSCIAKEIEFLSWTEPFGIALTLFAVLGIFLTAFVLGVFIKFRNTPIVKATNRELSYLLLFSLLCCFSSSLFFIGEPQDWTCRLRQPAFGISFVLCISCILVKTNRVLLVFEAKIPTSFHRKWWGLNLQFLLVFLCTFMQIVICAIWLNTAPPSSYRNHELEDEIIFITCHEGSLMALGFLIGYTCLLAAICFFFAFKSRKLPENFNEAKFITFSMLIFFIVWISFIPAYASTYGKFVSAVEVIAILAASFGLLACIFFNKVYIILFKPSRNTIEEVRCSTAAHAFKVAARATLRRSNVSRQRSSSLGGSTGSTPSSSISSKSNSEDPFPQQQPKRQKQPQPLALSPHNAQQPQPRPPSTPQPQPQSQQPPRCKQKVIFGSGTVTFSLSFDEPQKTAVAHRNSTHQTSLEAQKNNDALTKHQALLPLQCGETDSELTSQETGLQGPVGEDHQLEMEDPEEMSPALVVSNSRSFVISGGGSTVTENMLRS
Method: Following incubation, an oocyte was placed into a 100-μl plastic chamber and superfused with MBS at a flow rate of 0.5 ml/min using a peristaltic pump. Test molecules or inorganic polycations were added by rapidly moving the tubing into different buffers. Recording and current-passing electrodes were constructed from thin-wall capillary tubing pulled to a resistance of 1-3 Mohms and filled with 3M KCl. […] Currents were recorded directly onto a strip chart recorder.
The techniques used to clone the parathyroid calcium receptor are briefly described in this example; a more complete description of the techniques is provided in preceding sections, which describe techniques which may be used to clone additional forms of the Ca^2+ -receptor from other cell types. Poly(A^+)-enriched mRNA was initially prepared from bovine parathyroid glands by extracting with guanidinium thiocyanate, centrifugation through CsCl and oligo(dT) cellulose chromatography. […] No such currents were elicited in control eggs injected with water.
These responses are mediated by the following series of biochemical events:
Xenopus oocytes were injected with BoPCaR 1, the 5.3 Kb cDNA encoding a bovine parathyroid cell calcium receptor as described in Example 25. After two to three days, Cl^- currents were examined in the oocytes using a two-electrode voltage clamp.
Xenopus oocytes were injected with BoPCaR 1 as described in Example 25. After two to three days, Cl^- currents were examined in the oocytes using two electrode voltage clamp.

net positive charge = format: physicochemical
[3] = test system: increases in [Ca2+]i elicited by extracellular Ca2+ in bovine parathyroid cells; assay: block of extracellular Ca2+-induced [Ca2+]i increase / Ca2+ influx in bovine parathyroid cells; format: cell-based
Method: as §1, §2

For `N[C@@]1(C(=O)O)CC[C@@H](C(=O)O)C1` (relative stereo) [trans-ACPD], the “response of bovine parathyroid cells or Xenopus oocytes expressing calcium receptors to mGluR agonists” value [1] was “did not respond”.
For `CC1=C(C(=O)OC(C)C)C(c2cccc3nonc23)C([N+](=O)[O-])=C(C)N1` (single isomer, unassigned; (+)) [(+) 202-791], the “effect on basal [Ca2+]i or increases evoked by extracellular Ca2+” value ([1]; 1 μM) was “None”.
For `CC1=C(C(=O)OC(C)C)C(c2cccc3nonc23)C([N+](=O)[O-])=C(C)N1` (single isomer, unassigned; (-)) [(-) 202-791], the “effect on basal [Ca2+]i or increases evoked by extracellular Ca2+” value ([1]; 1 μM) was “None”.
For `O=C(O)c1c2ccccc2cc2ccccc12` [9AC], the “effect on activated chloride currents” value [2] was “blocks the currents”.
For `CNc1ccc2oc(C[C@H]3O[C@@]4(CC[C@H]3C)O[C@H]([C@H](C)C(=O)c3ccc[nH]3)[C@H](C)C[C@H]4C)nc2c1C(=O)O` [A23187], the “effect on activated chloride currents” value [2] was “activated”.
With `N=C(N)NCCC[C@H](N)C(=O)NCCCNCCCNCCCCCNC(=O)[C@H](CC(N)=O)NC(=O)Cc1ccc(O)cc1O` [Argiotoxin-636] the “net positive charge” value (net positive charge) was “+4”, the “increase in [Ca2+]i (words)” value ([1]; 400 μM) was “did not elicit increases” and the “potentiation of cytosolic Ca2+ response to extracellular Ca2+” value ([1]; 400 μM) was “did potentiate cytosolic”. The “increase in [Ca2+]i (words)” value ([1]; tested at concentrations similar to 100 to 300 μM) was “had no effect”.
For `N=C(N)NCCC[C@H](N)C(=O)NCCCNCCCNCCCCCNC(=O)[C@H](CC(N)=O)NC(=O)Cc1c[nH]c2cccc(O)c12` [Argiotoxin-659], the “Net (+) Charge (Table 1)” value (net positive charge) was “+4”, the “net positive charge” value (net positive charge) was “+4” and the “concentrations evoking transient increases in [Ca2+]i” value ([1]; bovine parathyroid cells) was 100 to 300 µM. The EC50 ([1]; read-out: EC50 (Table 1), parathyroid cells, screened as in Example 1) was 300 µM and the EC50 ([1]; read-out: EC50 for mobilization of intracellular Ca2+, bovine parathyroid cells) was 300 µM.
For `COC(=O)C1=C(C)NC(C)=C([N+](=O)[O-])C1c1ccccc1C(F)(F)F` (stereo not drawn) [BAY K 8644], the “effect on basal [Ca2+]i or increases evoked by extracellular Ca2+” value ([1]; 1 μM) was “None”.
For `NC[C@H]1O[C@H](O[C@H]2[C@H](O)[C@@H](O[C@H]3O[C@H](CO)[C@@H](O)[C@H](N)[C@H]3O)[C@H](N)C[C@@H]2N)[C@H](N)[C@@H](O)[C@@H]1O` [Bekanamycin], the “Net (+) Charge (Table 1)” value (net positive charge) was “+5”, the net positive charge (net positive charge; pH 7.3) was “+5” and the EC50 ([1]; read-out: EC50 for mobilization of intracellular Ca2+ (Table 4), screened as in Example 1) was 200 µM.
For `NCCCCCN` [Cadaverine, cadaverine], the “net positive charge” value (net positive charge) was “+2”.
For `COc1ccc(CCN(C)CCCC(C#N)(c2cc(OC)c(OC)c(OC)c2)C(C)C)cc1OC` [D-600], the “potentiation of mobilization of intracellular Ca2+ elicited by extracellular divalent cations” value ([1]; 100 μM) was “potentiated the mobilization of intracellular”, the “change in [Ca2+]i” value ([1]; 100 μM, 0.5 mM extracellular Ca2+) was “evoked no change” and the “increase in [Ca2+]i at intermediate extracellular Ca2+” value ([1]; 100 μM, 1-[…] extracellular Ca2+) was “small, but robust increase”. The “block of influx of extracellular Ca2+” value ([3]; 100 μM) was “blocked the influx of extracellular”.
For `O=C(O)CN(CCOCCOCCN(CC(=O)O)CC(=O)O)CC(=O)O` [EGTA], the “effect on inward currents to Gd3+” value ([2]; EGTA 100 μM, Gd3+ 600 μM) was “prevents oocytes expressing the calcium receptor from responding”.
With `NC[C@H]1O[C@H](O[C@H]2[C@H](O)[C@@H](O[C@H]3O[C@H](CO)[C@@H](O)[C@H](N)[C@H]3O)[C@H](N)C[C@@H]2N)[C@H](O)[C@@H](O)[C@@H]1O` [Kanamycin] the net positive charge (net positive charge; pH 7.3) was “~+4.5” and the “mobilization of intracellular Ca2+” value [1] was “without effect”.
For `CCC[C@@H]1C[C@@H](C(=O)N[C@@H]([C@H]2O[C@H](SC)[C@H](O)[C@@H](O)[C@H]2O)[C@@H](C)O)N(C)C1` [Lincomycin], the net positive charge (net positive charge; pH 7.3) was “+1” and the “mobilization of intracellular Ca2+” value [1] was “without effect”.
With `NCCCCCCCCCCCCNC(=O)Cc1ccc(O)cc1O` [NPS 021] the “change in [Ca2+]i by compound alone” value ([1]; 0.5 mM Ca2+) was “caused no change; also recorded: does not by itself cause any change”, the “effect on increase in [Ca2+]i elicited by extracellular Ca2+” value ([3]; 200 μM, [Ca2+] 0.5 to 2 mM) was “inhibited the increase” and the IC50 ([3]; Bos taurus, fura-2 loaded bovine parathyroid cells, read-out: IC50 for blocking increase in [Ca2+]i elicited by extracellular Ca2+) was about 200 µM. The “increase in [Ca2+]i evoked by extracellular Ca2+” value ([3]; around 500 μM) was “abolished”.
In the case of `NCCCN(CCCN)CCCN(CCCN)CCCCN(CCCN)CCCN(CCCN)CCCN` [NPS 381, N^1,N^1,N^5, N^10,N^14, N^14-hexakis-(3-aminopropyl) spermine], the “Net (+) Charge (Table 1)” value (net positive charge) is reported as “+10”.
In the case of `NCCCN(CCCN)CCCNCCCCNCCCN(CCCN)CCCN` [NPS 382, N^1,N^1,N^5,N^14, N^14-tetrakis-(3-aminopropyl)spermine], the “Net (+) Charge (Table 1)” value (net positive charge) is reported as “+8”.
In the case of `NCCCN1CCCN(CCCN)CCN(CCCN)CCCN(CCCN)CC1` [NPS 383], the “Net (+) Charge (Table 1)” value (net positive charge) is reported as “+8”.
In the case of `COc1ccc(CC(=O)NCCCCCCCCCCCCN)cc1OC` [NPS 384], the “increase in [Ca2+]i (words)” value ([1]; 300 μM) is reported as “did not evoke an increase”, the “block of influx of extracellular Ca2+” value ([3]; 300 μM) is reported as “blocked influx of extracellular” and the “effect of pretreatment on increases in [Ca2+]i elicited by extracellular Ca2+” value ([3]; 100 to 1000 μM) is reported as “depresses steady-state, but not transient increases”. For the same molecule, the “fall in [Ca2+]i” value ([3]; 100 to 1000 μM, buffer containing 2 mM CaCl2) was “prompt fall”.
With `COc1cccc([C@H](C)NCCCc2ccccc2Cl)c1` [NPS S-568] the concentration eliciting responses ([2]; BoPCaR 1-injected oocytes) was 100 µM.
In the case of `CCCC(=O)N[C@@H](Cc1ccc(O)cc1)C(=O)NCCCCNCCCNCCCN` [Philanthotoxin-433], the “net positive charge” value (net positive charge) is reported as “+3” and the “mobilization of intracellular Ca2+” value [1] is reported as “without effect”.
With `NCCCCN` [Putrescine] the “net positive charge” value (net positive charge) was “+2”.
Molecule `C[C@@H](NCCC(c1ccccc1)c1ccccc1)c1ccccc1` [R-Fendiline] has an EC50 ([1]; bovine parathyroid cells, fura-2, read-out: EC50 PARATHYROID (Table 6)) of 9 µM.
For `[H]/N=C(/N)N[C@H]1[C@H](O)[C@@H](O)[C@H](O[C@@H]2O[C@@H](C)[C@](O)(C=O)[C@H]2O[C@@H]2O[C@@H](CO)[C@H](O)[C@@H](O)[C@@H]2NC)[C@@H](N/C(N)=N\[H])[C@@H]1O` [Streptomycin], the “Net (+) Charge (Table 1)” value (net positive charge) was “+3”, the net positive charge (net positive charge; pH 7.3) was “+3” and the EC50 ([1]; parathyroid cells, screened as in Example 1, read-out: EC50 (Table 1)) was 600 µM.
With `NCCNCCNCCNCCN` [Tetraethylenepentamine (TEPA), Tetraethylenepentamine] the “Net (+) Charge (Table 1)” value (net positive charge) was “+5”.
With `NCCNCCNCCN` [Triethylenetramine (TETA), triethylenetetramine] the “Net (+) Charge (Table 1)” value (net positive charge) was “+4” and the EC50 ([1]; read-out: EC50 (Table 3)) was […].
In the case of `CC(NCCCc1ccccc1)c1ccccc1` (stereo not drawn) [compound 1D], the “relative potency” value ([1]; vs R-fendiline) is reported as “nearly as potent as the parent molecule”.
In the case of `COc1ccc([C@@H]2Sc3ccccc3N(CCN(C)C)C(=O)[C@@H]2OC(C)=O)cc1` [diltiazem], the “effective concentration, like verapamil and D-600” value [1] is reported as 100 µM.
For `N[C@@H](CCC(=O)O)C(=O)O` [glutamate], the “response of bovine parathyroid cells or Xenopus oocytes expressing calcium receptors to mGluR agonists” value [1] was “did not respond”.
In the case of `COc1cccc(C(C)NCCC(c2ccccc2)c2ccccc2)c1` (stereo not drawn) [meta-Methoxyfendiline], the “relative potency” value ([1]; vs NPS 467) is reported as “as potent as NPS 467”.
With `COC(=O)C1=C(C)NC(C)=C(C(=O)OC)C1c1ccccc1[N+](=O)[O-]` [nifedipine] the “effect on basal [Ca2+]i or increases evoked by extracellular Ca2+” value [1] was “None”.
With `CCOC(=O)C1=C(C)NC(C)=C(C(=O)OC)C1c1cccc([N+](=O)[O-])c1` (stereo not drawn) [nitrendipine] the “effect on basal [Ca2+]i or increases evoked by extracellular Ca2+” value ([1]; 1 μM) was “None”.
With `N[C@@H](Cn1oc(=O)[nH]c1=O)C(=O)O` [quisqualate] the “response of bovine parathyroid cells or Xenopus oocytes expressing calcium receptors to mGluR agonists” value [1] was “did not respond”.
With `COc1ccc(CCN(C)CCCC(C#N)(c2ccc(OC)c(OC)c2)C(C)C)cc1OC` (stereo not drawn) [verapamil] the “block of influx of extracellular Ca2+” value ([3]; 100 μM) was “blocked the influx of extracellular”.
For Gentamicin, the “Net (+) Charge (Table 1)” value (net positive charge) was “+5” and the net positive charge (net positive charge; pH 7.3) was “+5”.
